Measurements published in US20230312587A1, “PTERIDINONE COMPOUNDS AND USES THEREOF” (Vertex Pharmaceutical Incorporated, priority 2018, published 2023).

What follows are compounds tested on β-catenin-TCF-mediated reporter transcription activity in Colo 205 cells (assay: Colo 205 reporter assay (TCF/LEF luciferase)). Conditions: Colo 205 TCF/LEF luciferase reporter, five hours after addition of compound; read-out: TCF reporter Colo205 IC50.
Assay type: cell-based
In short: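 Luciferase signal from a TCF/LEF-driven reporter, stably integrated in Colo 205 colon cancer cells, was measured 5 h after compound addition.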

IC50 | Structure (SMILES)
≥ 5000 nM | Cc1nc(NC2CC(C)(OCc3cc(F)c(F)c(F)c3)C2)nc2c1NC(=O)[C@H](C)N2C (stereo in doubt) [Compound 290, (7S)-4,7,8-trimethyl-2-((cis-3-methyl-3-((3,4,5-trifluorobenzyl)oxy)cyclobutyl)amino)-7,8-dihydropteridin-6(5H)-one]

Same assay, conditions: Homo sapiens, COLO 205, 5 h, Colo 205 TCF/LEF luciferase reporter, five hours after addition of compound; read-out: TCF reporter Colo205 IC50

IC50 | Structure (SMILES)
< 300 nM | COC1(C2C(=O)Nc3c(C)nc(NCc4cnn(Cc5ccc(C(F)(F)F)nc5)c4)nc3N2C)CCC1 (stereo not drawn) [Compound 661, 7-(1-methoxycyclobutyl)-4,8-dimethyl-2-(((1-((6-(trifluoromethyl)pyridin-3-yl)methyl)-1H-pyrazol-4-yl)methyl)amino)-7,8-dihydropteridin-6(5H)-one]
< 300 nM | COc1c(F)cc(OC[C@H]2C[C@@H](Nc3nc(C)c4c(n3)N(C)[C@@H](C)C(=O)N4)C2)cc1F [Compound 284, (7S)-2-((cis-3-((3,5-difluoro-4-methoxyphenoxy)methyl)cyclobutyl)amino)-4,7,8-trimethyl-7,8-dihydropteridin-6(5H)-one]
300 to 1000 nM | Cc1nc(N[C@H]2C[C@@H](Nc3cnc(C(F)(F)F)cn3)C2)nc2c1NC(=O)C1(CCOC1)N2C (relative stereo) [Compound 687, 4′,8′-dimethyl-2′-((cis-3-((5-(trifluoromethyl)pyrazin-2-yl)amino)cyclobutyl)amino)-4,5,5′,8′-tetrahydro-2H,6′H-spiro[furan-3,7′-pteridin]-6′-one]
1000 to 5000 nM | C[C@H]1C(=O)Nc2cnc(N[C@H]3C[C@H](Oc4ccc(F)cc4)C3)nc2N1C [Compound 240, (7S)-2-((trans-3-(4-fluorophenoxy)cyclobutyl)amino)-7,8-dimethyl-7,8-dihydropteridin-6(5H)-one]
< 300 nM | C[C@H]1C(=O)Nc2cnc(N[C@H]3C[C@H](Oc4cc(F)c(F)c(F)c4)C3)nc2N1C [Compound 249, (7S)-7,8-dimethyl-2-((trans-3-(3,4,5-trifluorophenoxy)cyclobutyl)amino)-7,8-dihydropteridin-6(5H)-one]
< 300 nM | COc1cc(O[C@H]2C[C@H](Nc3nc(C)c4c(n3)N(C)[C@@H](C)C(=O)N4)C2)ccc1F [Compound 370, (7S)-2-((trans-3-(4-fluoro-3-methoxyphenoxy)cyclobutyl)amino)-4,7,8-trimethyl-7,8-dihydropteridin-6(5H)-one]
1000 to 5000 nM | CN1C(=O)C2(COC2)N(C)c2nc(NCc3cnn(Cc4ccc(F)cc4)c3)ncc21 [Compound 228, 2′-(((1-(4-fluorobenzyl)-1H-pyrazol-4-yl)methyl)amino)-5′,8′-dimethyl-5′,8′-dihydro-6′H-spiro[oxetane-3,7′-pteridin]-6′-one]
< 300 nM | Cc1nc(N[C@H]2C[C@@H](Nc3cc(C(F)(F)F)ccn3)C2)nc2c1NC(=O)[C@H](C(C)C)N2C [Compound 561, (S)-7-isopropyl-4,8-dimethyl-2-((cis-3-((4-(trifluoromethyl)pyridin-2-yl)amino)cyclobutyl)amino)-7,8-dihydropteridin-6(5H)-one]
< 300 nM | Cc1nc(NCc2cnn(Cc3cccc(F)c3)c2)nc2c1NC(=O)[C@H](C)N2C [Compound 69, (7S)-2-(((1-(3-fluorobenzyl)-1H-pyrazol-4-yl)methyl)amino)-4,7,8-trimethyl-7,8-dihydropteridin-6(5H)-one]
< 300 nM | Cc1nc(NCc2cnn(Cc3ccc(F)cc3C#N)c2)nc2c1NC(=O)[C@H](C)N2C [Compound 64, (7S)-5-fluoro-2-((4-(((4,7,8-trimethyl-6-oxo-5,6,7,8-tetrahydropteridin-2-yl)amino)methyl)-1H-pyrazol-1-yl)methyl)benzonitrile]
300 to 1000 nM | Cc1nc(NCc2ccc(OCc3ccc(F)cc3)cn2)nc2c1NC(=O)[C@H](C)N2C [Compound 70, (S)-2-(((5-((4-fluorobenzyl)oxy)pyridin-2-yl)methyl)amino)-4,7,8-trimethyl-7,8-dihydropteridin-6(5H)-one]
